Data on 19 molecules can be found in paper PMC5799093, “Proceedings of Réanimation 2018, the French Intensive Care Society International Congress” (Annals of Intensive Care, 2018).

The mortality is the share of the test organisms that died.

One data set has as its system Enterococcus faecalis. The data set is described as follows: Resistance in nosocomial urinary tract infection: Enterococcus faecalis (P-219). The conditions noted are these: January 2010 - June 2014.
A short description of data set [1]: Population pharmacokinetics of cefotaxime and desacetylcefotaxime in critically ill children (P-168). The data set is classed as in vivo, human (children). The protocol:
Patients and methods: All children aged less than 18 years, weighing more than 2.5 kg, and receiving intermittent CTX infusions were included. CTX and D-CTX were quantified by high performance liquid chromatography. Pharmacokinetics were described using the non-linear mixed effect modelling software MONOLIX. Monte Carlo simulations were used to optimize dosing regimen, in order to maintain serum concentration above the target concentration (defined at 2 mg L^−1) 100% of the time during the dosing interval.

Data set [2] deals with Farnesoid X receptor (FXR). The data set is described as follows: LPS sepsis in CKD mice treated with sevelamer (P-138). The format is in vivo, mice (C57BL6 J). The protocol:
Patients and methods: Sepsis was provoked by the injection of 0.5 mg kg of LPS 6 weeks after the creation of CKD. The CKD was created by unilateral nephrectomy associated with contralateral thermocauterisation. The mice (C57BL6 J) were randomly assigned to one of the following groups—sham placebo, CKD placebo, sham LPS or CKD LPS. A fifth group of CKD LPS mice received a treatment with sevelamer (a bile acid sequestrant) during 6 weeks. Survival of the animals, serum biochemistry and molecular biology in the kidney were performed after sacrifice.

The test system of data set [3] is carbapenemase-producing Enterobacteriaceae. The data set is described as follows: Antibiotic susceptibility of Enterobacteriaceae with decreased susceptibility to carbapenems. The data set is classed as cell-based.
For data set [4], the system named is Staphylococcus aureus. The data set is classed as cell-based. The conditions noted are these: blood culture isolates 2012–2016. The procedure: (§1) Patients and methods: From January 2012 to December 2016, a total of 2,182 non repetitive strains were isolated from blood cultures. Incubation of blood culture vials and the detection of bacterial growth were performed by the BACTEC system. All Isolated organisms were identified on the basis of standard microbiological techniques. Antibiotic susceptibility testing was carried out by the agar disk diffusion method, and susceptibility results were interpreted using clinical breakpoints according to CA-SFM 2013 and 2015 guidelines. Data were analyzed using the SIR-system. Minimum inhibitory concentrations of colistin, imipenem and vancomycin were determined using the Etest® method (bioMérieux).

Another data set relates to tramadol-overdosed rats. The data set is described as follows: Antidotes for tramadol overdose: seizures, plethysmography, sedation, EEG. To be noted: for tramadol-induced respiratory depression / ventilation: whole-body plethysmography.
For data set [5], the system named is patients after out-of-hospital cardiac arrest.
For data set [6], the system named is Staphylococcus aureus. The data set is described as follows: Resistance in nosocomial urinary tract infection: Staphylococcus aureus (P-219). To be noted: January 2010 - June 2014.
Data set [7] relates to diaphragm contraction and workload. The data set is described as follows: Diaphragmatic electromyography after diazepam / buprenorphine. The conditions noted are these: 30 mg kg BUP intraperitoneally, 20 mg kg DZP subcutaneously. The data set is classed as in vivo, Sprague–Dawley rat.
Protocol: Patients and methods: 11C-BUP was administered intravenously, 30 mg kg unlabeled BUP intraperitoneally and 20 mg kg DZP subcutaneously.
In another data set the test system is Acinetobacter baumannii. The format is cell-based. To be noted: blood culture isolates 2012–2016. The procedure:
as §1

Another data set has as its system Pseudomonas. The conditions noted are these: January 2010 - June 2014.
The nature of data set [8]: Beta-lactam plasma concentrations in children with severe sepsis or septic shock (HPLC). To be noted: current standard dosing.
A further data set deals with Escherichia-coli. The data set is described as follows: Resistance in nosocomial urinary tract infection: Escherichia-coli (P-219). The conditions noted are these: January 2010 - June 2014.
Data set [9] concerns Extended spectrum betalactamase producing Enterobacteriaceae. The data set is described as follows: Antibiotic resistance of ESBL producing Enterobacteriaceae (P-147). The data set is classed as cell-based. The conditions noted are these: isolates 2015 and 2016.
Test in data set [10]: not given
This is another data set of the same source.

Data set [11] has as its system E.coli lipopolysaccharide-challenged rats. The data set is described as follows: Sodium lactate vs 0.9% NaCl in rat endotoxin shock: fluid balance and capillary leak. The data set is classed as in vivo. The protocol:
Patients and methods: The sixteen sedated, mechanically ventilated rats were challenged with intravenous infusion of E.coli lipopolysaccharide (10 mg/kg). Two groups of eight animals were randomised to receive a continous perfusion (5 mL/kg/h) of sodium lactate 11.2% (treatment group) or 0.9% NaCl (control group). In order to inject the same caloric load in the two groups, a 4.35 mL/kg/h of either water of 10% dextrose solution were perfused. Mean arterial pressure, heart rate, urine ouput were measured over a 210 min period. An echocardiography was then performed and Evans Blue (1%, 30 mg/kg) was intravenously injected 30 min before sacrifice. Organs were withdrawn and organs wet dry ratio and Evans blue dye extravasation were measured.

The nature of data set [12]: Hemodynamic and metabolic effects of molar sodium lactate infusion in critically ill patients (P-135). The format is in vivo, human. The procedure:
Patients and methods: This was a retrospective study performed in a large University Hospital. All patients receiving the molecule were included in the analysis. Indication for sodium lactate, dose, and modality of administration were collected. We also collected clinical and biological variables before sodium lactate infusion, after 6 h (H6), and after 24 h (H24). An analysis of the evolution of these variables at H6 and H24 was performed.

The test system of another data set is Acinetobacter Baumanii. The data set is described as follows: Resistance of nosocomial infection isolates: Acinetobacter Baumanii (P-222). The conditions noted are these: n = 39 isolates, 2016. The data set is classed as cell-based. The text has this: Patients and methods: This was a retrospective study conducted within a 22-bed medical ICU of a Tunisian teaching hospital (301 beds) carried from January 1st to December 31, 2016. We recorded demographic patients’ characteristics which ICU’s stay was complicated with at least one NI. Then we described pathogens and microbiological specificities of NI.

Data set [13] relates to cardiogenic shock patients. The data set is described as follows: OPTIMA CC double-blind randomized trial, epinephrine vs norepinephrine in cardiogenic shock after myocardial infarction. The data set is classed as in vivo. The text has this:
Patients and methods: Multicenter, double-blind, randomized trial in 8 french ICU. Cardiogenic shock patients due to myocardial infarction treated by PCI were randomized to receive epinephrine or norepinephrine to maintain MAP at 70 mmHg. Dobutamine was introduced at the physician discretion according to a combination of parameters—echocardiographic parameters, cardiac index, lactate clearance, SVO2 and Swan-Ganz derived parameters.

Data set [14] in a line: Norepinephrine in pediatric septic shock, mortality (P-169). The format is in vivo, human (children).
Setting [15] is: median (range), 49 children, one compartment model.

Consider `CC1(C)S[C@@H]2[C@H](NC(=O)[C@H](N)c3ccccc3)C(=O)N2[C@H]1C(=O)O` [ampicillin], for which the resistance entry in the data set with Enterococcus faecalis is “no resistance”.
On to `CO/N=C(\C(=O)N[C@@H]1C(=O)N2C(C(=O)O)=C(COC(C)=O)CS[C@H]12)c1csc(N)n1` [CTX, cefotaxime], for which, in [1] (intermittent infusions, target 2 mg L^−1), the “target attainment of calculated residual concentrations” value was “no patient succeeds to attain the target”. In addition, the volume of distribution in data set [1] (setting [15]) is 3.3 (0.85–20) L. In data set [1] (median (range), 49 children, one compartment model, MONOLIX, HPLC), the CTX clearance is recorded as 0.97 (0.3–7.1) L h^−1.
For sevelamer, in [2] (sevelamer 6 weeks before LPS), the “RNA expression of FXR in the kidney versus CKD LPS group” value is “increased the RNA expression of FXR” and the “plasmatic concentration of Il1b, TNFa versus CKD LPS group” value was “lower plasmatic concentration”. Also, in [2] (sevelamer 6 weeks before LPS 0.5 mg kg), the “survival of CKD LPS animals” value is reported as “improved the survival”.
For `CO/N=C(\C(=O)N[C@@H]1C(=O)N2C(C(=O)O)=C(CO)CS[C@H]12)c1csc(N)n1` [D-CTX, desacetylcefotaxime], the D-CTX clearance in [1] (setting [15]) is on record as 3.2 (0.6–16.3) L h^−1.
For the molecule `CN(C)c1cc(NC(=O)CNC(C)(C)C)c(O)c2c1C[C@H]1C[C@H]3[C@H](N(C)C)C(O)=C(C(N)=O)C(=O)[C@@]3(O)C(O)=C1C2=O` [tigecycline], in [3] (colistin excepting with Proteus), the susceptibility was 63%. This molecule had a resistance rate with Staphylococcus aureus [4] of 15%.
For the molecule `CN1C(=O)CN=C(c2ccccc2)c2cc(Cl)ccc21` [diazepam], the sedation depth entry in the data set on tramadol-overdosed rats (rat, in vivo) is recorded as “significantly deepened rat sedation”. Further, in the data set with tramadol-overdosed rats, the “tramadol-induced respiratory depression / ventilation” value is reported as “without improving ventilation”.
As to amoxicillin-clavulanic acid, the “HR for early VAP vs placebo” value in [5] (IC 95% [0.315 + 0.946], p = 0.031) is on record as 0.546. In addition, in [5] (IV 1 g 200 mg three times a day for 2 days, n = 99), the “incidence of early VAP (< 7 days)” value worked out at 19.2%. Besides, in data set [5] (n = 99), the “Day 28 mortality” value is given as 41.4% and the “late VAP (> 7 days), number of patients” value stood at 4.
On to `CN[C@H](CC(C)C)C(=O)N[C@H]1C(=O)N[C@@H](CC(N)=O)C(=O)N[C@H]2C(=O)N[C@H]3C(=O)N[C@H](C(=O)N[C@H](C(=O)O)c4cc(O)cc(O)c4-c4cc3ccc4O)[C@H](O)c3ccc(c(Cl)c3)Oc3cc2cc(c3O[C@@H]2O[C@H](CO)[C@@H](O)[C@H](O)[C@H]2O[C@H]2C[C@](C)(N)[C@H](O)[C@H](C)O2)Oc2ccc(cc2Cl)[C@H]1O` [vancomycin], for which the resistance result was “no resistance” in the data set on Enterococcus faecalis and “without any resistance” with Staphylococcus aureus [6].
As to Cyclosporine A [CsA], the “IL-1, IL-6, IL-8 and TNFα levels versus Control group” value (D0 and D1, p = ns) was “did not significantly differ”. In addition, the “level of IL 10 at admission versus Control group” value (p < 0.05) is on record as “significantly lower”.
Regarding `CC(=O)NC[C@H]1CN(c2ccc(N3CCOCC3)c(F)c2)C(=O)O1` [linezolid], the resistance rate in the data set with Staphylococcus aureus [4] is reported as 1%.
Consider buprenorphine, for which, in [7], the “diaphragm contraction (first 60 min AUC)” value is “significantly increased” and the “diaphragm workload (first 60 min AUC)” value is “significantly increased”.
Consider `CC(C)(O/N=C(\C(=O)N[C@@H]1C(=O)N2C(C(=O)[O-])=C(C[n+]3ccccc3)CS[C@H]12)c1csc(N)n1)C(=O)O` [ceftazidime], for which the results for the resistance rate result in the data set on Acinetobacter baumannii, with Klebsiella pneumoniae and in the data set with Pseudomonas aeruginosa were “Eighty per cent”, 70% and 39%, respectively. For the same molecule, the resistant in the data set with Pseudomonas is 61%. Also, the “patients with insufficient plasma concentration” value in data set [8] worked out at 0%.
`C[C@@H](O)[C@H]1C(=O)N2C(C(=O)O)=C(S[C@@H]3CN[C@H](C(=O)Nc4cccc(C(=O)O)c4)C3)[C@H](C)[C@H]12` [ertapenem]: in data set [3] (39 selected bacteria), the “strains with MIC > 1 mg l” value is on record as 95%. In addition, the resistance result with Escherichia-coli is reported as “without resistance”.
Molecule `CNC(C)C1CCC(N)C(OC2C(N)CC(N)C(OC3OCC(C)(O)C(NC)C3O)C2O)O1` (stereo not drawn) [Gentamicin] came in with a rate of resistance in data set [9] of 50%.
For Amoxicillin clavulanic acid [AMC], the efficiency in data set [10] (community-acquired peritonitis) came to 77%. Also, the “impact when AMC was inadequate” value in [10] (in vivo) was “no impact on morbidity and mortality”.
As to `CC(O)C(=O)[O-].[Na+]` (stereo not drawn) [sodium lactate], the hemodynamics parameters result in data set [11] (after sodium lactate infusion) was “not significantly enhanced”. In addition, the “fluid balance, organs wet dry ratio and Evans blue dye extravasation” value in [11] (sodium lactate 11.2% 5 mL/kg/h vs 0.9% NaCl, LPS 10 mg/kg, 210 min) is “not significantly improved”. The diuresis result in [12] (6 h period following initiation, p = 0.02) is on record as “increase”. Also, the mean arterial pressure result in data set [12] (at H6 (p = 0.009) and H24 (p = 0.003), 250 ml infusion, 104 patients) is reported as “significant increase”. Moreover, the “pH, bicarbonate, base excess, and sodium” value in data set [12] (at H6 and H24, all p < 0.0001) is “increase”. Also, the “patients with plasma sodium >= 150 mmol l and pH >= 7.50” value in data set [12] (at H24) came to 5%. Also, the catecholamine dose entry in data set [12] (at H24, p = 0.002) is on record as “decrease”. Besides, in data set [12] (at H24, p = 0.05), the heart rate result is given as “decrease”.
`CN(C)c1cc(NC(=O)CNC(C)(C)C)c(O)c2c1C[C@H]1C[C@H]3[C@H](N(C)C)C(=O)C(C(N)=O)=C(O)[C@@]3(O)C(=O)C1=C2O` [tygecycline]: the resistance in the data set on Acinetobacter Baumanii was determined as 100%.
`NC[C@H](O)c1ccc(O)c(O)c1` [norepinephrine]: the “arterial pH and lactate” value in data set [13] (H2 to H24) was “arterial pH increased and lactate level decreased”. Also, in data set [13] (in vivo), the ECMO use worked out at 3%, the “cardiac double product (surrogate of myocardial oxygen consumption)” value is given as “did not change”, the heart rate evolution entry is “did not change” and the incidence of arrhythmia came to 33%. Moreover, the mortality in [13] (in vivo) is recorded as 37%. The “incidence of refractory shock” value in data set [13] (titrated to MAP 70 mmHg, epinephrine n = 27, norepinephrine n = 30) came to 7%. In addition, the “OR of maximal dose for mortality” value in data set [14] (95% confidence interval 1.1–2.0, p = 0.02) worked out at 1.4. Moreover, the global mortality rate in data set [14] (191 children with septic shock treated with norepinephrine) is 28.8%. The “mortality rate in preterm neonates” value in [14] (in vivo) was found to be 35.3%. This molecule also had a mortality in data set [14] (when dose reached 0.75 µg kg per minute) of 46.2%.
On to `C=CCN1CC[C@]23c4c5ccc(O)c4O[C@H]2C(=O)CC[C@@]3(O)[C@H]1C5` [naloxone], for which the “tramadol-induced respiratory depression / ventilation” value in the data set on tramadol-overdosed rats was “reversed tramadol-induced respiratory depression”.
